From US20250041327A1, “COMPOSITIONS FOR PREVENTING OR FOR REDUCING RISK OF […] INFECTIOUS DISEASES” (priority 2021, published 2025)

How the values were obtained:
ZO-1 = assay type: cell-based, human; details: A549 cells, EPS pre-treatment study; BXA 250 nM; viral-infection vs non-viral infection group
occludin = assay type: cell-based, human; details: A549 cells, EPS pre-treatment study; BXA 250 nM; viral-infection vs non-viral infection group
claudin-1 = assay type: cell-based, human; details: A549 cells, EPS pre-treatment study; BXA 250 nM; viral-infection vs non-viral infection group
E-cadherin = assay type: cell-based, human; details: A549 cells, EPS pre-treatment study; BXA 250 nM; viral-infection vs non-viral infection group
ICAM-1 = assay type: cell-based, human; details: infected A549 cells, 1×10^5 pfu virus; BXA 250 nM
VCAM-1 = assay type: cell-based, human; details: infected A549 cells, 1×10^5 pfu virus; BXA 250 nM
fibronectin = assay type: cell-based, human; details: infected A549 cells, 1×10^5 pfu virus; BXA 250 nM
PAF-r = assay type: cell-based, human; details: infected A549 cells, 1×10^5 pfu virus; BXA 250 nM
E-selectin = assay type: cell-based, human; details: infected A549 cells, 1×10^5 pfu virus; BXA 250 nM
[1] = tested on: S. aureus strain ATCC 29213; assay type: cell-based; details: 1×10^5 pfu virus, 1×10^5 cfu S. aureus for 1 hour; 400 μg EPS or 250 nM BXA per well; compared with virus-infected cells without treatment
CEACAM-1 = CEACAM-1 mRNA expression in virus-infected A549 cells (quantitative RT-PCR); details: 1×10^5 pfu virus, 1 hour with EPS then 6 hours, BXA 250 nM, compared with virus-infected cells

## O=C1c2c(O)c(=O)ccn2N([C@@H]2c3ccccc3SCc3c2ccc(F)c3F)[C@@H]2COCCN12 [BXA, baloxavir acid]
ZO-1
  ZO-1 mRNA expression: no difference
occludin
  occludin mRNA expression: no difference
claudin-1
  claudin-1 mRNA expression: no difference
E-cadherin
  E-cadherin mRNA expression: no difference
ICAM-1
  ICAM-1 mRNA expression: not changed
VCAM-1
  VCAM-1 mRNA expression: not changed
fibronectin
  fibronectin mRNA expression: not changed
PAF-r
  PAF-r mRNA expression: not changed
E-selectin
  E-selectin mRNA expression: not changed
[1]
  numbers of adhered bacteria on virus-infected A549 cells: did not decrease
CEACAM-1
  CEACAM-1 mRNA expression increased by influenza virus infection: significantly reduced
